Experiment: penetration into a human skin sample, topical application versus application combined with electroporation, amount determined by ELISA
Assay type: in vitro ADME
Description: To test the effect of the device, a sample of human skin is peripherally attached to a support, with the counterelectrode of the electroporation device placed between the inner face of the skin and the support. The electrode of the electroporation device is placed in contact with the outer face of the skin sample. The case of the electroporation device is immobilized by a support. The support is placed on an orbital shaker, so that the electrode moves over the surface of the skin. The device used in this example is a BTX Gemini X2 programmable signal generator (Harvard Instruments). The electroporation treatment time is about 1 minute. It consists of 81 pulses of 10 ms each, with rest periods of 500 ms between the pulses. The polarity chosen is negative, i.e. the electrode is at a negative potential relative to the counterelectrode. On the skin, the voltage between the electrode and the counterelectrode is about 40 V. 50 μl of […] are applied before the device is placed in position (corresponding to 100 μl/cm^2). […] Results The skin is removed from the experimental system and then analysed to determine the amount of N-acetyl-3-trifluoromethyl-phenyl-(valine-glycine) which has penetrated, via an ELISA technique.

amount that has penetrated into the skin (electroporation process (81 pulses of 10 ms, 500 ms rest, about 40 V, negative polarity) compared with topical application of an identical composition, 1% formulations 1 and 2, 100 μl/cm^2, FIG. 4): much higher
amount that has penetrated into the skin (FIG. 5) (electroporation process compared with topical application of an identical composition, FIG. 5): log higher
SMILES: CC(=O)N(c1cccc(C(F)(F)F)c1)C(C(=O)NCC(=O)O)C(C)C (centres unmarked) [N-acetyl-3-trifluoromethyl-phenyl-(valine-glycine)]
